# Data published in patent US9546358B2, “Compositions and methods for reducing background DNA amplification” (New England Biolabs, Inc., priority 2012, dated 2017).
# Tests used:
# [1] = test system: non-template amplification; experiment: LAMP assay, suppression of non-template (background) amplification, real-time SYTO-9 fluorescence; assay type: biochemical; conditions: for Minimum effective concentration of individual additive (Compound B) required for suppression of non-template amplification / Minimum effective concentration of individual additive (Compound A) required for suppression of non-template amplification: single additive, 100% suppression; for effect on non-template amplification: lower temperature
# Experimental: (§1) • 0.4-8 ng/μl DNA polymerase (Bst 2.0-Sso7d) in LAMP Buffer [20 mM Tris, 125 mM KCl, 10 mM (NH4)2SO4, 8 mM MgSO4, 1.4 mM dNTPs, 0.1% Tween-20® (Sigma-Aldrich, St. Louis, Mo.), pH 8.8 25° C.] • 1.6 μM Forward internal primer (FIP)/Back internal primer (BIP), 0.2 μM F3/B3, 0.4 μM LoopF/LoopB • 5 ng λ DNA or none (non-template control) per reaction (25 μl)
# (§2) The additive solution was added to the amplification mixture to provide a final concentration in the range of 0-40% v/v where the stock solution of additive was solubilized in water. For example, concentrations of isobutyramide in the range of 0.005 M-1.5 M, 0.01 M-1.2 M, or 0.01 M-0.7 M and N-methylformamide in the range of 0.01-2 M, 0.02 M-1.5 M, or 0.02 M-1 M (combined for example, at ratios of 10:1, 8:1, 6:1, 4:1, 2:1, 1.8:1, 1.6:1, 1.4:1, 1.2:1, 1:1 of N-methylformamide:isobutyramide) were tested at various temperatures. Other examples included in the final reaction mixture 0.02 M-1.3 M propionamide, 0.2 M-2 M Urea, 0.1 M-3.8 M formamide, 0.05 M-2 M acetamide, 0.02 M-0.5 M valeramide, 0.01 M-2 M N,N-dimethylformamide, 0.01 M-2 M N,N-diethylformamide, 0.01 M-1.8 M N,N-dimethylbutyramide.
# (§3) The extent of amplification of lambda DNA (unless otherwise specified) with a LAMP amplicon size of 100-200 bases was measured by real-time fluorescence using 2 μM SYTO-9® (Life Technologies, Carlsbad, Calif.) double strand DNA intercalating dye (Nagamine, et al., Molecular and Cellular Probes, 16:223-229 (2002)) using the following primers: […]
# The reduction in background fluorescence from non-template amplification was quantitatively assessed. The total reaction time for LAMP is 90 minutes. In the absence of additives, a positive signal for an amplification product of a template could be detected at about 3 minutes-15 minutes at temperatures 55° C.-72° C. and for a non-template signal at 8 minutes-30 minutes at temperatures below about 71° C. When a mixture of additives was included in the amplification mixture, a positive signal for template amplification is still seen at 3 minutes-15 minutes but no signal is seen even after 85 minutes for non-template reactions. This is recorded however as the maximum time to illustrate the synergistic effect. […] In all cases, the effect of the ratio of components of the mixture at specific molar concentrations is greater than the effect of each component small molecule individually tested at the same molar concentration and temperature (exemplified by data in Table 2).
# The synergistic effect of mixing a carboxamide and N-alkylcarboxamide was examined.
# lambda DNA = experiment: LAMP assay, target (template) amplification, real-time SYTO-9 fluorescence; assay type: biochemical, lambda phage
# Experimental: as §1, §2, §3
# The reduction in background fluorescence from non-template amplification was quantitatively assessed. The total reaction time for LAMP is 90 minutes. In the absence of additives, a positive signal for an amplification product of a template could be detected at about 3 minutes-15 minutes at temperatures 55° C.-72° C. and for a non-template signal at 8 minutes-30 minutes at temperatures below about 71° C. […] This is recorded however as the maximum time to illustrate the synergistic effect. […]
# [2] = N-methylformamide increased above 1.0 M
# [3] = isobutyramide increased above 0.4 M
smiles,measurement,setting,value
"CCN(C=O)CC [DEF, N,N-diethylformamide]",Minimum effective concentration of individual additive (Compound B) required for suppression of non-template amplification,[1]; 65 °C,0.26 M
"CNC=O [NMF, N-methylformamide]",suppression of non-template amplification,"[1]; 1.1 M N-methylformamide alone, 60 °C",~1%
same,suppression of non-template amplification,"[1]; 1.1 M N-methylformamide alone, 65 °C",~10%
same,effect on non-template amplification,[1]; [2],did not affect the non-template amplification at lower temperature
same,effect of increasing amounts of single additive on non-template amplification (time to threshold),"[1]; increasing amounts of 3.2 M N-methylformamide, FIG. 6A",no beneficial effect observed
same,Minimum effective concentration of individual additive (Compound B) required for suppression of non-template amplification,[1]; 65 °C,1.1 M
same,effect on target amplification,"lambda DNA; 1.1 M N-methylformamide, single additive, FIG. 2B",inhibited target amplification above 68 °C
same,effect on target amplification,lambda DNA; [2],further inhibit the target amplification
"CCCCC(N)=O [VA, valeramide]",Minimum effective concentration of individual additive (Compound A) required for suppression of non-template amplification,[1]; 65 °C,0.20 M
"CN(C)C=O [DMF, N,N-dimethylformamide]",Minimum effective concentration of individual additive (Compound B) required for suppression of non-template amplification,[1]; 65 °C,0.77 M
"CC(C)C(N)=O [IBA, isobutyramide]",suppression of non-template amplification,"[1]; 0.4 M isobutyramide alone, 60 °C",~1%
same,suppression of non-template amplification,"[1]; 0.4 M isobutyramide alone, 65 °C",~10%
same,effect on non-template amplification,[1]; [3],did not affect the non-template amplification at lower temperature
same,Minimum effective concentration of individual additive (Compound A) required for suppression of non-template amplification,[1]; 65 °C,0.41 M
same,effect on target amplification,lambda DNA; [3],further inhibit the target amplification
"CCCC(=O)N(C)C [DMB, N,N-dimethylbutyramide]",Minimum effective concentration of individual additive (Compound A) required for suppression of non-template amplification,[1]; 65 °C,0.24 M
"NC=O [FA, formamide]",Minimum effective concentration of individual additive (Compound A) required for suppression of non-template amplification,[1]; 65 °C,1.8 M
"CCC(N)=O [PIA, propionamide]",effect of increasing amounts of single additive on non-template amplification (time to threshold),"[1]; increasing amounts of 1.7 M propionamide, FIG. 6B",no beneficial effect observed
same,Minimum effective concentration of individual additive (Compound A) required for suppression of non-template amplification,[1]; 65 °C,0.80 M
